Measurements published in paper PMC3694096, “Development of Novel In Vivo Chemical Probes to Address CNS Protein Kinase Involvement in Synaptic Dysfunction” (PLoS ONE, 2013).
Where two headings read alike, the source gives them in different places.

Columns and labels:
JNK1α1 = JNK1α1 (Homo sapiens, UniProt P45983); assay: biochemical
[1] = tested on: PI3 Kinase (p110α (H1047R)/p85α); assay: Kinome profiler screen; format: biochemical; conditions: at 20,000 nM inhibitor; kinase activity remaining
[2] = target: T1, PI3 Kinase (p110α (E542K)/p85α) (Homo sapiens, UniProt P42336, E542K); assay: Kinome profiler screen; format: biochemical; conditions: at 20,000 nM inhibitor; kinase activity remaining
T1 construct: purchased Millipore KinaseProfiler
T1 sequence (P42336 whole entry E542K): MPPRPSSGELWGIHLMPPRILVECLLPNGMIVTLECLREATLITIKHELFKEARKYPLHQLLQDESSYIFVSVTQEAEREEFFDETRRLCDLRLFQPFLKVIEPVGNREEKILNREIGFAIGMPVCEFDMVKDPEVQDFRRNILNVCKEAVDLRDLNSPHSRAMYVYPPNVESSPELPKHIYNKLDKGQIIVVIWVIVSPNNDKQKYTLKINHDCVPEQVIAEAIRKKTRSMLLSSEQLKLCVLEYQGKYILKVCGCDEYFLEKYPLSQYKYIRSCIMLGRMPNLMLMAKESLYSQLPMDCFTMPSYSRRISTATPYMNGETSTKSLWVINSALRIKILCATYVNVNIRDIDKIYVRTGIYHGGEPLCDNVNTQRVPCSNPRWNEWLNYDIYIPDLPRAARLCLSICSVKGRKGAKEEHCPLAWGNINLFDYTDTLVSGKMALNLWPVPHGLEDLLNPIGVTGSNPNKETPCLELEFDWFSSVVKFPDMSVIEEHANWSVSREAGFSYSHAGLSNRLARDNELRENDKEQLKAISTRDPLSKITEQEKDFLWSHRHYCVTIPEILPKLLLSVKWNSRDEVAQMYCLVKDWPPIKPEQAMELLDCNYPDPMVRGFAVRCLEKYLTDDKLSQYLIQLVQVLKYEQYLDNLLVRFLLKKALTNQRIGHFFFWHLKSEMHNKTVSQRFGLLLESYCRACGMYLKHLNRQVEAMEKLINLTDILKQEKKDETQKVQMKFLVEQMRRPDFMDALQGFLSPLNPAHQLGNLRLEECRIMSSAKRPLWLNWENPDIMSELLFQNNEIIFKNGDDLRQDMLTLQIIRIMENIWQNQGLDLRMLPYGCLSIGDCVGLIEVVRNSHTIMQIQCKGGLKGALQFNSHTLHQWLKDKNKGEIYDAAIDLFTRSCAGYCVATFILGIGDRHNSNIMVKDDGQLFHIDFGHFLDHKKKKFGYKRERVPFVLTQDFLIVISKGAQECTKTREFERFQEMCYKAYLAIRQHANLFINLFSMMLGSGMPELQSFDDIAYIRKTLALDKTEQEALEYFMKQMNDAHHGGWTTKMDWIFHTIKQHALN
T1 sequence (P27986 whole entry partner): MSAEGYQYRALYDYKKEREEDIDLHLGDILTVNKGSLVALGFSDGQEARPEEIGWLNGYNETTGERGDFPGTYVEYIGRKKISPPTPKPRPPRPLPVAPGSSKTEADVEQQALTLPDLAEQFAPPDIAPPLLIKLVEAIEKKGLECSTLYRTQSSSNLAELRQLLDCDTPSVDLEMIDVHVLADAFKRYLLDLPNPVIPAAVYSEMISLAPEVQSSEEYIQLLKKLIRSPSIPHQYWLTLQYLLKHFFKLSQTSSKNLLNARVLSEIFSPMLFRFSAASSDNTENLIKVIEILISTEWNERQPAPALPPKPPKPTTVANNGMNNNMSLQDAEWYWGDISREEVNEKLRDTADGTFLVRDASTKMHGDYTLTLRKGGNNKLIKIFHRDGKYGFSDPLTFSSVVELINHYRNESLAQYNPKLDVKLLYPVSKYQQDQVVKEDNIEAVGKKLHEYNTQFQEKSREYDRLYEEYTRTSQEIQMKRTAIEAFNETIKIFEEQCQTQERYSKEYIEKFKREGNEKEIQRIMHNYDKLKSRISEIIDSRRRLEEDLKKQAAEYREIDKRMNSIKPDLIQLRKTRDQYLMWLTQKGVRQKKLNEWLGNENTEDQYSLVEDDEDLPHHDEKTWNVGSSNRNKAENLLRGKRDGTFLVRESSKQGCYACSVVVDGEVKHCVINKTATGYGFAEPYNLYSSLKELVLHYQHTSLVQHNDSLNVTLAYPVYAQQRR

JNK2α2 = JNK2α2 (Homo sapiens, UniProt P45984); assay: biochemical
Chain of JNK2α2 (P45984 whole entry): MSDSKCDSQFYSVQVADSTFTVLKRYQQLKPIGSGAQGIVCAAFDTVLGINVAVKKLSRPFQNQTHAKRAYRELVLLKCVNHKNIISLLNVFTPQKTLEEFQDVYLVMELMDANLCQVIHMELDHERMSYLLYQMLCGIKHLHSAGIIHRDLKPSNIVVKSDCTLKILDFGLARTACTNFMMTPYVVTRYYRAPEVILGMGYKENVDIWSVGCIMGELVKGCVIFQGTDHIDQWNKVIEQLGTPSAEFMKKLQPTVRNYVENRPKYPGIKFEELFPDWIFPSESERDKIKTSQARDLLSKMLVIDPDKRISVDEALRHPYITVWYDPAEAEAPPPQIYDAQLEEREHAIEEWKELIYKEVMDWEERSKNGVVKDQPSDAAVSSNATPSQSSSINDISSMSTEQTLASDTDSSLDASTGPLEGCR

PI3 kinase (p110α/p65α) = target: T2, PI3 kinase (p110α/p65α) (Homo sapiens, UniProt P42336); assay: Kinome profiler screen; format: biochemical; conditions: at 20,000 nM inhibitor; kinase activity remaining
T2 construct: purchased Millipore KinaseProfiler
T2 sequence (P42336 whole entry): as the sequence (P42336 whole entry E542K) above, with K542E counted along it
T2 sequence (P27986 1-571 partner limits assumed): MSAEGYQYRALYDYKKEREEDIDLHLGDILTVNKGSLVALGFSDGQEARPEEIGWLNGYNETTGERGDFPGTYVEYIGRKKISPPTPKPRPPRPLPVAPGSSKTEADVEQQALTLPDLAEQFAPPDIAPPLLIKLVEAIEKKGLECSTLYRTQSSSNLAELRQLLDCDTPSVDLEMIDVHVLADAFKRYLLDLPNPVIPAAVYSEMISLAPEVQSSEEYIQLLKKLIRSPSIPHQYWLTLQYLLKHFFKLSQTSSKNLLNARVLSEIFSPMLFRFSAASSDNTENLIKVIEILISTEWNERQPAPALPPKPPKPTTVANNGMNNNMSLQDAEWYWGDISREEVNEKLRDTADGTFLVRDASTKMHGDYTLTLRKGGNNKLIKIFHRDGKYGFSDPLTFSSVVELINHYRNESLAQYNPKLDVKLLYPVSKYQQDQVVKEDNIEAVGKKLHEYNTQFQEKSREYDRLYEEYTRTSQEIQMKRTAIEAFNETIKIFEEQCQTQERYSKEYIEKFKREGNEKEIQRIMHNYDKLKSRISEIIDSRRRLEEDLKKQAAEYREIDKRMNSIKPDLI

Blk = target: T3, Blk (Homo sapiens, UniProt P51451); assay: Kinome profiler screen; format: biochemical; conditions: at 20,000 nM inhibitor; kinase activity remaining
T3 construct: purchased Millipore KinaseProfiler

SAPK3 (SAPK=p38MAPK) = target: T4, SAPK3 (SAPK=p38MAPK) (Homo sapiens, UniProt P53778); assay: Kinome profiler screen; format: biochemical; conditions: at 20,000 nM inhibitor; kinase activity remaining
T4 construct: purchased Millipore KinaseProfiler
T4 sequence (P53778 whole entry): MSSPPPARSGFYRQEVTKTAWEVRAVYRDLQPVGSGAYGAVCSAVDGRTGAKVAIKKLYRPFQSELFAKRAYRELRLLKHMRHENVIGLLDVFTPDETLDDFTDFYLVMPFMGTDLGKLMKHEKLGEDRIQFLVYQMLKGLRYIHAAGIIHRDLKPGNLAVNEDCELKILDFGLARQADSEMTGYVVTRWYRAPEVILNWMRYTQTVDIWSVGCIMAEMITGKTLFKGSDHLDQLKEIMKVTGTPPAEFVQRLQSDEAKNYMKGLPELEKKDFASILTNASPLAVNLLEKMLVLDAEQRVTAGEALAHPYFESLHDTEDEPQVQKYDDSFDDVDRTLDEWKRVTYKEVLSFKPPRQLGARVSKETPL

Aurora-C = target: T5, Aurora-C (Homo sapiens, UniProt Q9UQB9); assay: Kinome profiler screen; format: biochemical; conditions: at 20,000 nM inhibitor; kinase activity remaining
T5 construct: purchased Millipore KinaseProfiler
T5 sequence (Q9UQB9 whole entry): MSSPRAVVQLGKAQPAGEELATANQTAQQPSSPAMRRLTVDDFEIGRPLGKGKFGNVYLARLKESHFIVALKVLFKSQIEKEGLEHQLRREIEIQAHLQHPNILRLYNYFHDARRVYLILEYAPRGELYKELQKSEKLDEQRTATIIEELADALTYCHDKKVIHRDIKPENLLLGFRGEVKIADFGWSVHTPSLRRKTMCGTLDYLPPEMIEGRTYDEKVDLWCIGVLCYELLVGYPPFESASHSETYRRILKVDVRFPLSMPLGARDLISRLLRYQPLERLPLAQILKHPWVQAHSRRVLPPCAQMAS

[3] = target: T6, PI3 Kinase (p110α (H1047R)/p85α) (Homo sapiens, UniProt P42336, H1047R); assay: Kinome profiler screen; format: biochemical; conditions: at 20,000 nM inhibitor; kinase activity remaining
T6 construct: purchased Millipore KinaseProfiler
T6 sequence (P42336 whole entry H1047R): as the sequence (P42336 whole entry E542K) above, with K542E, H1047R counted along it
T6 sequence (P27986 whole entry partner): as the sequence (P27986 whole entry partner) above

PI3 Kinase (p110α/p85α) = target: T7, PI3 Kinase (p110α/p85α) (Homo sapiens, UniProt P42336); assay: Kinome profiler screen; format: biochemical; conditions: at 20,000 nM inhibitor; kinase activity remaining
T7 construct: purchased Millipore KinaseProfiler
T7 sequence (P42336 whole entry): as the sequence (P42336 whole entry E542K) above, with K542E counted along it
T7 sequence (P27986 whole entry partner): as the sequence (P27986 whole entry partner) above

[4] = target: T8, PI3 Kinase (p110α (E545K)/p85α) (Homo sapiens, UniProt P42336, E545K); assay: Kinome profiler screen; format: biochemical; conditions: at 20,000 nM inhibitor; kinase activity remaining
T8 construct: purchased Millipore KinaseProfiler
T8 sequence (P42336 whole entry E545K): as the sequence (P42336 whole entry E542K) above, with K542E, E545K counted along it
T8 sequence (P27986 whole entry partner): as the sequence (P27986 whole entry partner) above

SAPK4 (SAPK=p38MAPK) = target: T9, SAPK4 (SAPK=p38MAPK) (Homo sapiens, UniProt O15264); assay: Kinome profiler screen; format: biochemical; conditions: at 20,000 nM inhibitor; kinase activity remaining
T9 construct: purchased Millipore KinaseProfiler
T9 sequence (O15264 whole entry): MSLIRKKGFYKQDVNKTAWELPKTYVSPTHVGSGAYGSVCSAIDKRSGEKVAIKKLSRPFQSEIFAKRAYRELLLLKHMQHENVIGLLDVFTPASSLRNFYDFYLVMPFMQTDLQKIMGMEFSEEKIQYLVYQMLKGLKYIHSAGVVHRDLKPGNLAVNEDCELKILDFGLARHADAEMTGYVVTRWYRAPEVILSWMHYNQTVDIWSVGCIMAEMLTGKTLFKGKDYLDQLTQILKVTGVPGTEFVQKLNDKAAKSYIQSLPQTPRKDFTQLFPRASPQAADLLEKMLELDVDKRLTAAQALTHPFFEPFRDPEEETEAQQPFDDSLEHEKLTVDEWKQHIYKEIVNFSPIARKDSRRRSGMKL

panel of 158 GPCRs = assay: Functional GPCR agonist and antagonist screen (calcium flux FLIPR); format: cell-based; conditions: outcome in words
[5] = tested on: phospho-MK-2 (p38αMAPK substrate) in BV-2 cells; assay: LPS-induced phosphorylation of MK-2 in BV-2 cells; format: cell-based, murine; conditions: LPS-stimulated BV-2 cells, 60 min
NLK = target: T10, NLK (Homo sapiens, UniProt Q9UBE8); assay: Kinetic analysis, Ki; format: biochemical; design: purchased Millipore
T10 sequence (Q9UBE8 1-527): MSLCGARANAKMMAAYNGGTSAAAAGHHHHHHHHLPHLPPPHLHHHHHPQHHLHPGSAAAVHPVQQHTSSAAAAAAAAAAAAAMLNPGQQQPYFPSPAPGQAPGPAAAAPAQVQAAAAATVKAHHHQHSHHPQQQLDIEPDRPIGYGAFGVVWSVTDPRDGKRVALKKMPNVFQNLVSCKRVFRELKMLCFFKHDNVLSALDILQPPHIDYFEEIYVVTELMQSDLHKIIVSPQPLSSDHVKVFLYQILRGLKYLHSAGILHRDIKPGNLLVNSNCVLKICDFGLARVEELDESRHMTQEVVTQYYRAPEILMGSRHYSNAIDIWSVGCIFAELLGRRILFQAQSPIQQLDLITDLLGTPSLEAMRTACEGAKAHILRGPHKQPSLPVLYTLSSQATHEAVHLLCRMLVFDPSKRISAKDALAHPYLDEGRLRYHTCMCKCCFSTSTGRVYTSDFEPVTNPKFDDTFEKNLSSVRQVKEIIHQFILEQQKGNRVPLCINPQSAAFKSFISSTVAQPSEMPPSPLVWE

SAPK2b (SAPK=p38MAPK) = target: T11, SAPK2b (SAPK=p38MAPK) (Homo sapiens, UniProt Q15759); assay: Kinome profiler screen; format: biochemical; conditions: at 20,000 nM inhibitor; kinase activity remaining
T11 construct: purchased Millipore
T11 sequence (Q15759 whole entry): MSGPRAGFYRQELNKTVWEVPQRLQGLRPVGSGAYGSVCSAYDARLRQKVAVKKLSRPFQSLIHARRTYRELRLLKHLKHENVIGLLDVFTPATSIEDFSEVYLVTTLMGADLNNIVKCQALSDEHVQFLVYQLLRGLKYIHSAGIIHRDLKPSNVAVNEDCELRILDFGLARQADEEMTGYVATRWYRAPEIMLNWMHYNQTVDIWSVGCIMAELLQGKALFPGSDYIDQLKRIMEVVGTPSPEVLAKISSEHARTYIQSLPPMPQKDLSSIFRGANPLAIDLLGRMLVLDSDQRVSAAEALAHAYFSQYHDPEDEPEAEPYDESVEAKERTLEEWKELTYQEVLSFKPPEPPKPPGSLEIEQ

[6] = Acid dissociation constant (pKa); format: physicochemical; conditions: water with methanol co-solvent, ionic strength 0.15 M KCl, 22±2°C

Chain of JNK1α1 (P45983 1-384 isoform P45983-2): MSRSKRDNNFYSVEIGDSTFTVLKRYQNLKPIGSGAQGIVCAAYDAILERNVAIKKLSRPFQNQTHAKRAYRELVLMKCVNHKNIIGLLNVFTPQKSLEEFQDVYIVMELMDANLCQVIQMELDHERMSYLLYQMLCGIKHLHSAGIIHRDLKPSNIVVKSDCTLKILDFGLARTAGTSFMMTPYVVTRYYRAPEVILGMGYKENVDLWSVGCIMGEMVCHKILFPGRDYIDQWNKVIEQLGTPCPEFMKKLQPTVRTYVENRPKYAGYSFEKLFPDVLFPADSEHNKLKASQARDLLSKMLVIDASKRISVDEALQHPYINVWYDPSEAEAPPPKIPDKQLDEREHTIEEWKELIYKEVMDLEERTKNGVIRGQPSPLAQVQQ

Row | Compound | activity at 20 µM (JNK1α1) [%] | % Activity [1] [%] | activity at 20 µM [2] [%] | activity at 20 µM (JNK2α2) [%] | activity at 20 µM (PI3 kinase (p110α/p65α)) [%] | activity at 20 µM (Blk) [%] | activity at 20 µM (SAPK3 (SAPK=p38MAPK)) [%] | activity at 20 µM (Aurora-C) [%] | activity at 20 µM [3] [%] | activity at 20 µM (PI3 Kinase (p110α/p85α)) [%] | activity at 20 µM [4] [%] | activity at 20 µM (SAPK4 (SAPK=p38MAPK)) [%] | Functional GPCR Agonist and Antagonist Screen (panel of 158 GPCRs) | phosphorylation of the p38α substrate MK2 [5] | Ki (NLK) [µM] | activity at 20 µM (SAPK2b (SAPK=p38MAPK)) [%] | pKa ([6]; read-out: pKa (UV method), first value) | pKa ([6]; read-out: pKa (UV method), second value) | pKa ([6]; read-out: pKa (potentiometric method), second value)
1 | CN(C)c1cc(-c2ccncc2)c(-c2ccc3ccccc3c2)nn1 [MW108, N, N-dimethyl-6-(naphthalen-2-yl)-5-(pyridin-4-yl)pyridazin-3-amine] | 96 | 99 | 99 | 76 | 99 | 88 | 87 | 113 | 99 | 98 | 98 | 93 | negative | inhibited phosphorylation of the p38α substrate MK2 in a concentration-dependent manner |  |  |  |  | 
2 | CN(C)c1cc(-c2ccncc2)c(-c2cccc3ccccc23)nn1 [MW181, N,N-dimethyl-6-(naphthalen-1-yl)-5-(pyridin-4-yl)pyridazin-3-amine] |  |  |  |  |  |  |  |  |  |  |  |  |  |  | 0.199 | 6 | 4.71 ± 0.03 | 3.19 ± 0.09 | < 3.5
